Laboratory results from PubChem BioAssay AID2060884 (Molecular Pharmacology Branch, DTP, NCI, 2025).
“And” between values parts separate entries of the source, which are not always exact repeats. Identical values can stand only once.

System: NCI-H929 complex spheroids, viability % test/control
Assay: Anticancer human tumor NCI-H929 cell line growth inhibition [RAS];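 note: compound exposure lasted seven days before viability was read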
Details: for viability, T/C: stronger effect = lower value
Excerpt: RAS pathway inhibitors in Combinations in Complex Spheroids
A high-throughput screen of multi-cell type tumor spheroids was designed to identify active combinations of RAS pathway inhibitors and targeted small molecules. Complex spheroids include a stromal component modeled by human endothelial cells (HUVEC) and fibroblasts modeled by human mesenchymal stem cells (MSCs). The concentration ranges selected for each drug and investigational agent were based upon clinically achievable concentrations if the clinical Cmax of the agent was known.
Compounds. The drugs and investigational agents: abemaciclib (NSC768073), cobimetinib (NSC768068), divarasib (GDC6063, NSC841802), docetaxel (NSC628503), GDC-1971 (RLY-1971, NSC841576), gemcitabine (NSC613327), inavolisib (NSC800729), ipatasertib (NSC767898), KB-0742 (NSC834161), MRTX-1133 (NSC836407), osimertinib (NSC779217), RMC-4630 (NSC839698), RMC-6236 (NSC851965), RMC-6291 (NSC852671), Ro-3306 (NSC812927), sapanisertib (NSC764658), SN-38 (NSC673596), staurosporine (NSC755774), SY5609 (NSC837396), and tovorafenib (DAY101, NSC766906), were obtained from the National Cancer Institute (NCI) Developmental Therapeutics Program Chemical Repository. The FDA-approved anticancer drug set is available from the NCI Developmental Therapeutics Program. […] The stock solutions were prepared in dimethyl sulfoxide (DMSO, Sigma-Aldrich, St. Louis, MO, cat. D2650) at 800-fold the tested concentration and stored at -70 degrees C prior to their use. All drugs and investigational agents were tested over a range starting from a high concentration at or near the clinical Cmax and decreasing in half-log increments. If the clinical Cmax for an agent had not been determined, the highest concentration tested was 10 microM.
Cell Culture. All cells were maintained in an incubator at 37 degrees C and 5% CO2 with 95% humidity. The PDC lines were cultured according to standard operating procedures established by the NCI PDMR. All PDCs were thawed and cultured in Matrigel-coated flasks prepared with a working solution of 1X Ham's F-12 nutrient mix, without supplementation (Invitrogen, Waltham, MA, cat. 11765054), 100 U/mL penicillin-streptomycin (Invitrogen, cat. 15140122), and 2.5% Matrigel (Corning Inc., Corning, NY, cat. 354248) for the first three passages. The 362531-283-R-J2-PDC and 782815-120-R-J1-PDC lines were cultured in 6C/Colon 1B media, which includes advanced DMEM/F-12 (Thermo Fisher Scientific, cat. 12634028), 10 mM HEPES (Thermo Fisher Scientific, cat. 15630080), 1X GlutaMAX supplement (Thermo Fisher Scientific, cat. 35050061), 0.1 mg/mL primocin (InvivoGen, San Diego, CA, cat. ant-pm-2), 10% defined fetal bovine serum, heat inactivated (HyClone Laboratories Inc., Logan, UT, cat. SH30070.03HI), 50% L-WRN conditioned media (ATCC, cat. CRL-3276), 1.25 mM N-Acetyl-L-cysteine (Sigma-Aldrich, cat. A9165), 10 mM nicotinamide (Sigma-Aldrich, cat. N0636), 1X B-27 supplement (Thermo Fisher Scientific, cat. 17504044), 1X N-2 supplement (Thermo Fisher Scientific, cat. 17502048), 50 ng/mL human EGF (Thermo Fisher Scientific, cat. PHG0311), and 10 microM Y-27632 dihydrochloride (Tocris Bioscience, cat. 1254). The K12877-001-R-J1-PDC line was cultured in 6I media, which includes all 6C/Colon 1B media plus 10 ng/mL human FGF-10 (PeproTech, cat. 100-26), 1 ng/mL human FGF-2 (PeproTech, cat. 100-18B), 1 µM prostaglandin E2 (Tocris Bioscience, cat. 2296), […] hydrocortisone (Sigma-Aldrich, cat. H4001), and […] bovine insulin (Sigma-Aldrich, cat. I6634). The K86415-001-R-J1-PDC line was cultured in 6D media, which includes all 6C/Colon 1B media components minus the L-WRN conditioned media. The 485176-168-R4-J1-PDC was cultured in PANC media, which includes all 6C/Colon 1B media plus 100 ng/mL human FGF-10 (PeproTech, cat. 100-26), 500 nM SB-431542 (Selleckchem, cat. S1067), and 10 nM gastrin (Tocris Bioscience, cat. 3006). […]

## CC1(O)CCCC1n1c(=O)c(C(F)F)cc2cnc(NC3CCN(S(C)(=O)=O)CC3)nc21 (stereo not given)
Compound 0.0316 µM
  viability, T/C: 116% and 105% and 113% (2×)
Compound 0.316 µM
  viability, T/C: 4.47% [middle of 4 runs]
Compound 1 µM
  viability, T/C: 9.4% [middle of 4 runs]
Compound 3.16 µM
  viability, T/C: 2.17% [middle of 4 runs]
Compound 10 µM
  viability, T/C: 0.2% and 0.16% and 0.08%
Curve of compound
  IC50: 189 nM [middle of 4 runs]

## C=CC(=O)N1CCN(c2nc(OCC3CCCN3C)nc3c(F)c(-c4nc(N)cc(C)c4C(F)(F)F)c(Cl)cc23)C(C)C1 (stereo not given)
Compound 0.00316 µM
  viability, T/C: 102% [middle of 12 runs]
Compound 0.01 µM, compound 0.0316 µM
  viability, T/C: 103%
Compound 0.01 µM, compound 0.1 µM
  viability, T/C: 105%
Compound 0.01 µM, compound 0.316 µM
  viability, T/C: 101%
Compound 0.01 µM, compound 1 µM
  viability, T/C: 106%
Compound 0.01 µM
  viability, T/C: 101% [middle of 13 runs]
Compound 0.0316 µM, compound 0.00316 µM
  viability, T/C: 94.3%
Compound 0.0316 µM, compound 0.01 µM
  viability, T/C: 101%
Compound 0.0316 µM, compound 0.1 µM
  viability, T/C: 101%
Compound 0.0316 µM, compound 0.316 µM
  viability, T/C: 108%
Compound 0.0316 µM, compound 1 µM
  viability, T/C: 109%
Compound 0.0316 µM
  viability, T/C: 103% [middle of 13 runs]
Compound 0.1 µM, compound 0.00316 µM
  viability, T/C: 98.2%
Compound 0.1 µM, compound 0.01 µM
  viability, T/C: 104%
Compound 0.1 µM, compound 0.0316 µM
  viability, T/C: 99.5%
Compound 0.1 µM, compound 0.316 µM
  viability, T/C: 109%
Compound 0.1 µM, compound 1 µM
  viability, T/C: 111%
Compound 0.1 µM
  viability, T/C: 100% [middle of 12 runs]
Compound 0.316 µM, compound 0.00316 µM
  viability, T/C: 102%
Compound 0.316 µM, compound 0.01 µM
  viability, T/C: 105%
Compound 0.316 µM, compound 0.0316 µM
  viability, T/C: 106%
Compound 0.316 µM, compound 0.1 µM
  viability, T/C: 102%
Compound 0.316 µM, compound 1 µM
  viability, T/C: 113%
Compound 0.316 µM
  viability, T/C: 100% [middle of 13 runs]
Compound 1 µM, compound 0.00316 µM
  viability, T/C: 107%
Compound 1 µM, compound 0.01 µM
  viability, T/C: 104%
Compound 1 µM, compound 0.0316 µM
  viability, T/C: 105%
Compound 1 µM, compound 0.1 µM
  viability, T/C: 109%
Compound 1 µM, compound 0.316 µM
  viability, T/C: 110%
Compound 1 µM
  viability, T/C: 104% [middle of 13 runs]
Compound alone, run of 09/09/2024
  IC50: > 1000 nM
Curve of compound
  IC50: > 1000 nM

## C=CC(=O)N1CCN(c2nc(OCC3CCCN3C)nc3c(F)c(-c4nc(N)cc(C)c4C(F)(F)F)c(Cl)cc23)C(C)C1 (stereo not given) + CCn1c(-c2cc(N3CCN(C)CC3)cnc2C(C)OC)c2c3cc(ccc31)-c1csc(n1)CC(NC(=O)C1CC1C)C(=O)N1CCCC(N1)C(=O)OCC(C)(C)C2
Curve of first compound, second compound 0.000949 µM
  IC50: > 1000 nM
Curve of first compound, second compound 0.003 µM
  IC50: > 1000 nM
Curve of first compound, second compound 0.00949 µM
  IC50: > 1000 nM
Curve of first compound, second compound 0.03 µM
  IC50: > 1000 nM
Curve of first compound, second compound 0.0949 µM
  IC50: < 3.16 nM
Curve of first compound, second compound 0.3 µM
  IC50: < 3.16 nM
Second compound 0.000949 µM, first compound 0.00316 µM
  viability, T/C: 98.6%
Second compound 0.000949 µM, first compound 0.01 µM
  viability, T/C: 92.4%
Second compound 0.000949 µM, first compound 0.0316 µM
  viability, T/C: 102%
Second compound 0.000949 µM, first compound 0.1 µM
  viability, T/C: 96.4%
Second compound 0.000949 µM, first compound 0.316 µM
  viability, T/C: 101%
Second compound 0.000949 µM, first compound 1 µM
  viability, T/C: 107%
Second compound 0.003 µM, first compound 0.00316 µM
  viability, T/C: 89.5%
Second compound 0.003 µM, first compound 0.01 µM
  viability, T/C: 97.1%
Second compound 0.003 µM, first compound 0.0316 µM
  viability, T/C: 97.5%
Second compound 0.003 µM, first compound 0.1 µM
  viability, T/C: 96.6%
Second compound 0.003 µM, first compound 0.316 µM
  viability, T/C: 101%
Second compound 0.003 µM, first compound 1 µM
  viability, T/C: 97.2%
Second compound 0.00949 µM, first compound 0.00316 µM
  viability, T/C: 109%
Second compound 0.00949 µM, first compound 0.01 µM
  viability, T/C: 115%
Second compound 0.00949 µM, first compound 0.0316 µM
  viability, T/C: 116%
Second compound 0.00949 µM, first compound 0.1 µM
  viability, T/C: 114%
Second compound 0.00949 µM, first compound 0.316 µM
  viability, T/C: 114%
Second compound 0.00949 µM, first compound 1 µM
  viability, T/C: 116%
Second compound 0.03 µM, first compound 0.00316 µM
  viability, T/C: 69.4%
Second compound 0.03 µM, first compound 0.01 µM
  viability, T/C: 70.8%
Second compound 0.03 µM, first compound 0.0316 µM
  viability, T/C: 78.2%
Second compound 0.03 µM, first compound 0.1 µM
  viability, T/C: 91%
Second compound 0.03 µM, first compound 0.316 µM
  viability, T/C: 89.7%
Second compound 0.03 µM, first compound 1 µM
  viability, T/C: 65.1%
Second compound 0.0949 µM, first compound 0.00316 µM
  viability, T/C: 8.79%
Second compound 0.0949 µM, first compound 0.01 µM
  viability, T/C: 7.92%
Second compound 0.0949 µM, first compound 0.0316 µM
  viability, T/C: 7.39%
Second compound 0.0949 µM, first compound 0.1 µM
  viability, T/C: 10.4%
Second compound 0.0949 µM, first compound 0.316 µM
  viability, T/C: 12.4%
Second compound 0.0949 µM, first compound 1 µM
  viability, T/C: 8.5%
Second compound 0.3 µM, first compound 0.00316 µM
  viability, T/C: 4.59%
Second compound 0.3 µM, first compound 0.01 µM
  viability, T/C: 4.22%
Second compound 0.3 µM, first compound 0.0316 µM
  viability, T/C: 3.75%
Second compound 0.3 µM, first compound 0.1 µM
  viability, T/C: 4.24%
Second compound 0.3 µM, first compound 0.316 µM
  viability, T/C: 4.79%
Second compound 0.3 µM, first compound 1 µM
  viability, T/C: 3.26%
